From US20150275180A1, “Chemical preconditioning process for cell material to obtain chemical epigenetic reprogramming and pluripotency expression” (priority 2012, published 2015)
Like-named read-outs stand apart in the source and are kept apart here.

How the values were obtained:
[1] = system: human dermal skin fibroblasts; assay: Comparative analysis of HBR, its grafting moieties alone or as a mixture, on stemness gene expression; format: cell-based; details: 12 hours, 2.0 mg/ml HBR, 1.5 mg/ml HA, 2.5 mM BU, 10^-8M RA, hydrolyzed HBR 2 mg/ml
Method: FIG. 6 is the comparative analysis of the effect of HBR, or its grafting moieties alone or as a mixture, on the expression of sternness-related genes in human dermal skin fibroblasts: cells were incubated for 12 hours in the absence or presence of 2.0 mg/ml HBR, 1.5 mg/ml HA, 2.5 mM BU, or 10^-8M RA, or exposed to a hydrolyzed (HY) HBR solution (2 mg/ml), obtained from a 2-h basic HBR hydrolysis followed by pH neutralization. This procedure affords a complete release of each single HBR grafted moiety, leading to the formation of a mixture of HA, BU, and RA, with each molecule in the concentration range reported above for the experiments based on cell incubation in the presence of each molecule alone. The amount of each transcript from exposed or unexposed cells was normalized to HPRT1, and the mRNA expression of exposed cells was plotted at each time point as fold change relative to the expression in control unexposed cells, defined as 1 (mean±S.E.; n=6).
This procedure affords a complete release of each single HBR grafted moiety, leading to the formation of a mixture of HA, BU, and RA, with each molecule in the concentration range reported above for the experiments based on (stem) cell incubation in the presence of each molecule alone.

[2] = system: Lipogems-derived hASCs; details: 2 mg/ml HBR, 7-day treatment
Source text: (§1) A, GATA4; B, Nkx2.5; C, neurogenin1; D, VEGF; E, MyoD. The amount of each transcript from exposed or unexposed cells was normalized to HPRT1, and the mRNA expression of exposed cells was plotted at each time point as fold change relative to the expression in control unexposed cells, defined as 1 (mean±S.E.; n=6);

[3] = system: human dermal skin fibroblasts; details: 2 mg/ml HBR, 7-day treatment
Source text: as §1

[4] = system: human dermal skin fibroblasts; details: HBR 2 mg/ml for 14 days, confocal microscopy
Source text: Scale bars are 40 μm. Representative of six separate experiments;

[5] = system: Lipogems-derived hASCs; details: 14 days, 2 mg/ml HBR, mean±S.E., n=6
[6] = system: human skin fibroblasts; details: 14 days, 2 mg/ml HBR, mean±S.E., n=6
[7] = system: Lipogems-derived hASCs; details: 2 mg/ml HBR
Source text: (§2) A, Sox2; B, Oct4; C, Nanog. The amount of each transcript from exposed or unexposed cells was normalized to HPRT1, and the mRNA expression of exposed cells was plotted at each time point as fold change relative to the expression in control unexposed cells, defined as 1 (mean±S.E.; n=6);

[8] = system: human dermal skin fibroblasts; details: 2 mg/ml HBR
Source text: as §2

[9] = system: Lipogems-derived hASCs; details: HBR for 14 days, confocal microscopy
[10] = system: adult rat cardiac ventricular cardiomyocytes; details: in vitro HBR treatment; cited from earlier work
[11] = system: Stro-1 positive rat mesenchymal stem cells; details: in vitro HBR treatment; cited from earlier work
[12] = later times of exposure (7-day treatment)
[13] = within the first 12-24 hours of a 7-day treatment

| Compound | transcription of the stemness/pluripotency genes Sox2, Nanog and Oct4 versus unexposed control [1] | gene expression of GATA4, Nkx2.5, VEGF, neurogenin-1 and myoD [2] | gene expression of GATA4, Nkx2.5, VEGF, neurogenin-1 and myoD [3] | expression of tissue restricted marker proteins (α-myosin heavy chain, α-sarcomeric actinin, β-3 tubulin, vWF, myoD) [4] | cells expressing α-sarcomeric actinin [5] [%] | myoD positive cells [5] [%] | vWF positive cells [5] [%] | β-3-tubulin expressing cells [5] [%] | cells expressing vWF (endothelial marker) [6] | cells expressing β-3-tubulin (neuronal determination marker) [6] [%] | percentage of myoD (skeletal muscle)-positive elements [6] [%] | percentage of α-sarcomeric actinin (myocardial)-positive elements [6] [%] | transcription of stemness-related genes Nanog, Sox2, Oct4 [7, 12] | transcription of stemness-related genes Nanog, Sox2, Oct4 [7, 13] | transcription of stemness-related genes Nanog, Sox2, Oct4 [8, 12] | transcription of stemness-related genes Nanog, Sox2, Oct4 [8, 13] | expression of tissue restricted marker proteins (α-myosin heavy chain, α-sarcomeric actinin, β-3 tubulin, vWF, myoD) [9] | histone H4 acetylation compared with untreated cells [10] | histone H4 acetylation compared with untreated cells [11] |
| --- | --- | --- | --- | --- | --- | --- | --- | --- | --- | --- | --- | --- | --- | --- | --- | --- | --- | --- | --- |
| CCCC(=O)O [BU, butyric acid] | significantly increased | – | – | – | – | – | – | – | – | – | – | – | – | – | – | – | – | – | – |
| hyaluronic acid [HA] | significantly increased | – | – | – | – | – | – | – | – | – | – | – | – | – | – | – | – | – | – |
| hyaluronic acid esterified with butyric and retinoic acids [HBR] | significantly higher levels | significantly enhanced | significantly enhanced | appearance of cells expressing | 31.0±2.8 | 12.4±2.0 | 22.2±3.0 | 14.0±2.1 | 18.0±2.6 | 12.30±2.7 | 14.00±3.00 | 28.00±3.40 | down-regulation | significantly enhanced | down-regulation | significantly enhanced | appearance of cells expressing | significant increase | significant increase |
